Test results taken from patent publication EP3506874B1, “A PERSONAL CARE COMPOSITION” (Unilever N.V., priority 2016, dated 2018).

Tests used:
THP1-XBlue™ cells = assay: Anti-inflammation THP-1 in vitro assay: LPS-induced IL-6 by ELISA; format: cell-based
Procedure: The following procedure was used to test the anti-inflammation efficacy of the various actives alone or in combination. THP1-XBlue™ (Cat No: thpx-sp, InvivoGen) cells were cultured as suspense in RPMI 1640 medium supplemented with 10% FBS, penicillin (10 U/mL) - streptomycin (10 µg/ML). Cells were differentiated in 24-well plates at the density of 5 x 10^5 cells / well with 100 nM PMA for 72 h. Cells were then co-treated with pure E. coli lipopolysaccharides (LPS) and single concentration or a combination of 6-gingerdiol and niacinamide at different doses. After 24 h, the supernatants were collected measured for interleukin (IL)-6 as pro-inflammatory bio-marker using enzyme-linked immunosorbent assay (ELISA).

[1] = Solubility in organic solvents; format: physicochemical; details: commonly used organic solvents such as alcohols, ethers, esters, acetonitrile, chloroform, dichloromethane, dimethylformamide, dimethylsulfoxide
[2] = system: Primary adult human keratinocytes (HEKa); assay: 2-D Dandruff Model: triple cytokine mix (IL-17, IL-22, TNFα) induced IL-8 by ELISA, normalised to protein; format: cell-based; details: with triple cytokine mix, mix alone 744.83
Procedure: Primary adult human keratinocytes (HEKa) frozen at passage 1 were purchased from Invitrogen (Cat no […]). They were thawed into KGM Gold (Lonza cat no 00195769) made up with all components of the accompanying bullet kit plus 70μM calcium (from a stock solution of 200mM calcium chloride), placed in a T75 tissue culture flask and grown to 70-80% confluence. The cells were passaged and again grown to 70-80% confluence. At passage 3 the cells were washed with calcium and magnesium free PBS (Life Technologies cat no 14190-094) and removed from the flask using trypsin-EDTA (Life Technologies cat no 25300-054) and washed by centrifugation with trypsin neutralising solution (Life Technologies cat no R-002-100). The cell pellet was re-suspended in KGM Gold plus 70μM calcium and containing the bullet kit components but omitting the gentamycin and hydrocortisone (referred to as plating medium). The cells were plated into 24-well plates at a density of 2x10^4 cells/well and allowed to settle for 24 hours prior to treatment. The medium is removed from the cells and replace by 0.5ml plating medium containing […], […] and […] TNFα together with the active at the required concentration. A concentration range can be done. Also included are an untreated control, a vehicle control and a triple cytokine mix without active all in triplicate. The plates are incubated for a further 16 to 24 hours. In this case the actives were 6-gingerdiol and a selection of curcuminoids. The medium is harvested for IL-8 ELISA (R &D Systems Duoset kit cat no DY208) and the cells lysed for protein assay (Pierce BCA Protein Assay Kit Life Technologies cat no 23225) in order to normalise IL-8 to protein.

CCCCCC(O)CC(O)CCc1ccc(O)c(OC)c1 (stereo not shown) [6-gingerdiol, 1-(4-hydroxy-3-methoxyphenyl)decane-3,5-diol]
Concentration of IL-6 (THP1-XBlue™ cells; 1.25 µM of 6-gingerdiol, with LPS, LPS alone 46137): 37212 pg/mL | Concentration of IL-6 (THP1-XBlue™ cells; 10 µM of 6-gingerdiol, co-treated with LPS, 24 h, LPS alone 10547): 8781 pg/mL | solubility [1]: soluble | Concentration of IL-8 ([2]; 5 µM of 6-gingerdiol): 347.99 pg/100µgprotein | Concentration of IL-8 ([2]; 10 µM of 6-gingerdiol): 446.85 pg/100µgprotein | Concentration of IL-8 ([2]; 20 µM of 6-gingerdiol): 390.31 pg/100µgprotein

NC(=O)c1cccnc1 [niacinamide]
Concentration of IL-6 (THP1-XBlue™ cells; 0.5 mM niacinamide, with LPS, LPS alone 46137): 41688 pg/mL | Concentration of IL-6 (THP1-XBlue™ cells; 1 mM of niacinamide, with LPS, LPS alone 46137): 39894 pg/mL | Concentration of IL-6 (THP1-XBlue™ cells; 16 mM of niacinamide, co-treated with LPS, 24 h, LPS alone 10547): 6031 pg/mL | Concentration of IL-8 ([2]; 10 mM of niacinamide): 408.30 pg/100µgprotein
